In the experiment the test system is human IgG. Briefly: Microscale Thermophoresis (MST) with IgG-FITC. The settings on record: E6, IgG-FITC 50 nM, E6 23.5 µM to 0.7 nM, 50 mM MOPS 0.05% (v/v) Tween-20 pH 7, 25 °C, n = 4. Type of experiment: binding. The protocol:
For MST assays of E6, IgG was conjugated with fluoresceine isothiocyanate (FITC) using standard protocols. The conjugated IgG-FITC was used at a fixed concentration of 50nM and 16 serial dilutions of E6 protein (from 23.5 µM to 0.7 nM) were made in 50 mM MOPS 0.05% (v/v) Tween-20 pH 7.
For MST assays of E6_M2_T2, the target was hIgG-FITC (F9636, Sigma) at a constant concentration of 25 nM. For the E6_M2_T2 ligand, 16 samples were prepared in variable concentrations starting from 695 nM and using a serial dilution of 1:2 up to a minimum concentration of […] using PBS1x-0.05% (v/v) Tween-20 pH7.4.
Samples were transferred to a standard capillary (Monolith NT.115 Capillary, Nanotemper) with the following settings: medium MST-power, excitation power at 20%, with excitation in Nano-Blue, with thermostat at 25 °C. The signal of the samples was read in triplicates using a Monolith NT.115 (Nanotemper) and the signal was processed in the manufacturer software with FitModel: Kd and Hill. The binding parameters (KD and EC50) and were estimated automatically in the MST software.

In publication PMC12647017, “Discovery and optimization of a synthetic small protein domain targeting antibodies” (Frontiers in Bioengineering and Biotechnology, 2025) one finds EC50 and Kd data, which are given here for one sequence.

For the sequence “SMGLPPGWDEYKT RRFKL GKTYYYNH HILS KTSTWTDPRMSS [Clone E6]”, the EC50 came to 146 nM. Moreover, the Kd (read-out: dissociation constant, KD) was determined as 133 ± 48 nM.
